# Test results published in US20100267637A1, “TREATMENT OF MELANOMA WITH ALPHA THYMOSIN PEPTIDES IN COMBINATION WITH A KINASE INHIBITOR” (SciClone Pharmaceuticals, Inc., priority 2007, published 2010).
# Test: Treatment toxicity: body weight and drug-induced animal deaths in B16 melanoma-bearing mice
# Type: in vivo, C57BL/6 mice
# Experimental: The toxic effects of the dosing regimens were also monitored. […] Meanwhile 9H10 was given in two groups via i.p. on Day 3, 6 and 9. […] Tumor volume and body weight were measured every three days, and tumor weights were measured on Day 16 at the end of the study.
# On Day 3, the animals were randomly assigned into nine different weight-matched and tumor-size-matched groups. Dosing was started on Day 3 using the regimen according to Table 2.
# From Day 1 to Day 15, mortality and moribundity were checked twice daily, the body weights were recorded once every 3 days, and tumors were measured using a caliper once every 3 days. At the end of the study (Day 16), the animals were euthanized by CO2 asphyxiation, and the tumors were excised and weighed.
# Toxicity of all treatment regimens was evaluated with the body weights of the study animals along with the drug-induced animal deaths. The inhibition of body weight was calculated using Excel according to the equation below:
# PIBW(%)=100×(BW vehicle−BW drug treated)/BW vehicle
# Inter-group comparison was performed in terms of tumor volume, tumor weight and body weight, using a student's t test. P values of less than 0.05 were considered to be statistically significant.
smiles,measurement,setting,value
"CN(C)/N=N/c1[nH]cnc1C(N)=O [DTIC, Dacarbazine]",Body Weight (g) (Mean ± SD),"Day 0 (tumor implantation, before dosing)",20.86 ± 1.294 g
same,Body weights on Day 0,"Day 0, animal F1",21.50 g
same,Body weights on Day 0,"Day 0, animal F2",19.90 g
same,Body weights on Day 0,"Day 0, animal F3",19.70 g
same,Body weights on Day 0,"Day 0, animal F4",19.30 g
same,Body weights on Day 0,"Day 0, animal F5",22.10 g
same,Body weights on Day 0,"Day 0, animal M1",22.40 g
same,Body weights on Day 0,"Day 0, animal M2",21.80 g
same,Body weights on Day 0,"Day 0, animal M3",21.00 g
same,Body weights on Day 0,"Day 0, animal M4",18.90 g
same,Body weights on Day 0,"Day 0, animal M5",22.00 g
same,Percent inhibition of body weight vs vehicle (PIBW),Day 0,−0.1440%
same,Body Weight (g) (Mean ± SD),Day 3 (start of dosing),21.02 ± 0.993 g
same,Body weights on Day 3,"Day 3, animal F1",21.60 g
same,Body weights on Day 3,"Day 3, animal F2",19.60 g
same,Body weights on Day 3,"Day 3, animal F3",20.50 g
same,Body weights on Day 3,"Day 3, animal F4",20.30 g
same,Body weights on Day 3,"Day 3, animal F5",21.30 g
same,Body weights on Day 3,"Day 3, animal M1",22.20 g
same,Body weights on Day 3,"Day 3, animal M2",22.00 g
same,Body weights on Day 3,"Day 3, animal M3",21.20 g
same,Body weights on Day 3,"Day 3, animal M4",19.50 g
same,Body weights on Day 3,"Day 3, animal M5",22.00 g
same,Percent inhibition of body weight vs vehicle (PIBW),Day 3,−0.6705%
same,Body Weight (g) (Mean ± SD),Day 6,20.41 ± 0.960 g
same,Body weights on Day 6,"Day 6, animal F1",20.40 g
same,Body weights on Day 6,"Day 6, animal F2",18.40 g
same,Body weights on Day 6,"Day 6, animal F3",19.70 g
same,Body weights on Day 6,"Day 6, animal F4",20.10 g
same,Body weights on Day 6,"Day 6, animal F5",20.50 g
same,Body weights on Day 6,"Day 6, animal M1",20.90 g
same,Body weights on Day 6,"Day 6, animal M2",21.80 g
same,Body weights on Day 6,"Day 6, animal M3",20.20 g
same,Body weights on Day 6,"Day 6, animal M4",20.50 g
same,Body weights on Day 6,"Day 6, animal M5",21.60 g
same,Percent inhibition of body weight vs vehicle (PIBW),Day 6,−0.0490%
same,Body Weight (g) (Mean ± SD),Day 9,20.99 ± 1.049 g
same,Body weights on Day 9,"Day 9, animal F1",21.70 g
same,Body weights on Day 9,"Day 9, animal F2",19.50 g
same,Body weights on Day 9,"Day 9, animal F3",21.10 g
same,Body weights on Day 9,"Day 9, animal F4",19.50 g
same,Body weights on Day 9,"Day 9, animal F5",21.70 g
same,Body weights on Day 9,"Day 9, animal M1",21.30 g
same,Body weights on Day 9,"Day 9, animal M2",22.10 g
same,Body weights on Day 9,"Day 9, animal M3",20.60 g
same,Body weights on Day 9,"Day 9, animal M4",20.00 g
same,Body weights on Day 9,"Day 9, animal M5",22.40 g
same,Percent inhibition of body weight vs vehicle (PIBW),Day 9,−2.8417%
same,Body Weight (g) (Mean ± SD),Day 12,22.09 ± 1.079 g
same,Body weights on Day 12,"Day 12, animal F1",22.50 g
same,Body weights on Day 12,"Day 12, animal F2",20.10 g
same,Body weights on Day 12,"Day 12, animal F3",21.40 g
same,Body weights on Day 12,"Day 12, animal F4",21.70 g
same,Body weights on Day 12,"Day 12, animal F5",22.20 g
same,Body weights on Day 12,"Day 12, animal M1",22.80 g
same,Body weights on Day 12,"Day 12, animal M2",23.40 g
same,Body weights on Day 12,"Day 12, animal M3",22.20 g
same,Body weights on Day 12,"Day 12, animal M4",21.00 g
same,Body weights on Day 12,"Day 12, animal M5",23.60 g
same,Percent inhibition of body weight vs vehicle (PIBW),Day 12,−0.9137%
same,Body Weight (g) (Mean ± SD),Day 15,22.22 ± 1.963 g
same,Body weights on Day 15,"Day 15, animal F1",21.30 g
same,Body weights on Day 15,"Day 15, animal F2",18.70 g
same,Body weights on Day 15,"Day 15, animal F3",20.20 g
same,Body weights on Day 15,"Day 15, animal F4",22.20 g
same,Body weights on Day 15,"Day 15, animal F5",22.20 g
same,Body weights on Day 15,"Day 15, animal M1",24.50 g
same,Body weights on Day 15,"Day 15, animal M2",24.20 g
same,Body weights on Day 15,"Day 15, animal M3",22.70 g
same,Body weights on Day 15,"Day 15, animal M4",21.30 g
same,Body weights on Day 15,"Day 15, animal M5",24.90 g
same,Percent inhibition of body weight vs vehicle (PIBW),Day 15,−0.3613%
same,body weight effect in words (loss / difference vs vehicle group),throughout the course of the study,no statistical differences in body weights
